Reference: patent US7902373B2 (Pfizer Inc, priority 2006, dated 2011)

biological target: human recombinant H-PGDS (Homo sapiens, UniProt O60760); assay: Fluorescence intensity h-PGDS TBA enzyme assay; type: biochemical; conditions: Examples up to 622 (and 3a, 3b)
Sequence (O60760 whole entry): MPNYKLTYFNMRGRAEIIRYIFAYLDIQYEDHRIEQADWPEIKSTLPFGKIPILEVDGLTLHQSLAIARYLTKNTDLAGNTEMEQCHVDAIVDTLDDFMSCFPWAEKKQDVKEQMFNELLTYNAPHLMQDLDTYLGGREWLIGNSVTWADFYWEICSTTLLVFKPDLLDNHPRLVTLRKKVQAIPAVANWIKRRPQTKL

Row | IC50 [nM] | SMILES
1 | 0.387 | CCOC(=O)N1CCC(NC(=O)c2ccc(-c3cccc(F)c3)nc2)CC1 [Example 32, Ethyl 4-({[6-(3-fluorophenyl)pyridin-3-yl]carbonyl}amino)piperidine-1-carboxylate]
2 | 2.41 | CCOC(=O)N1CCC(NC(=O)c2ccc(-c3cc(F)cc(F)c3)nc2)CC1 [Example 33, Ethyl 4-({[6-(3,5-difluorophenyl)pyridin-3-yl]carbonyl}amino)piperidine-1-carboxylate]
3 | 1.85 | O=C(NC1CCN(CC(F)(F)F)CC1)c1ccc(-c2cc(F)cc(F)c2)nc1 [Example 34, 6-(3,5-Difluorophenyl)-N-[1-(2,2,2-trifluoroethyl)piperidin-4-yl]nicotinamide]
4 | 2.95 | COc1cnc(-c2ccccn2)nc1N1CCC(NC(=O)c2ccc(-c3cccc(F)c3)nc2)CC1 [Example 35, 6-(3-Fluorophenyl)-N-(1-(5-methoxy-2-(pyridin-2-yl)pyrimidin-4-yl)piperidin-4-yl)nicotinamide]
5 | 7.11 | O=C(NC1CCNCC1)c1ccc(-c2cccc(F)c2)nc1 [Example 36, 6-(3-Fluorophenyl)-N-(piperidin-4-yl)nicotinamide]
6 | 0.478 | O=C(NC1CCN(c2cc(Nc3cc[nH]n3)ncn2)CC1)c1ccc(-c2cccc(F)c2)nc1 [Example 37, N-(1-(6-(1H-Pyrazol-3-ylamino)pyrimidin-4-yl)piperidin-4-yl)-6-(3-fluorophenyl)nicotinamide]
7 | 1.04 | O=C(NC1CCN(c2ncnc3ccc(Cl)cc23)CC1)c1ccc(-c2cccc(F)c2)nc1 [Example 38, N-(1-(6-Chloroquinazolin-4-yl)piperidin-4-yl)-6-(3-fluorophenyl)nicotinamide]
8 | 0.924 | O=C(NC1CCN(c2nnnn2-c2ccccc2)CC1)c1ccc(-c2cccc(F)c2)nc1 [Example 39, 6-(3-Fluorophenyl)-N-(1-(1-phenyl-1H-tetrazol-5-yl)piperidin-4-yl)nicotinamide]
9 | 0.893 | Cc1ccc(C#N)c(N2CCC(NC(=O)c3ccc(-c4cccc(F)c4)nc3)CC2)n1 [Example 41, N-[1-(3-Cyano-6-methylpyridin-2-yl)piperidin-4-yl]-6-(3-fluorophenyl)nicotinamide]
10 | 8.58 | O=C(NC1CCN(c2nccnc2-c2ccccc2)CC1)c1ccc(-c2cccc(F)c2)nc1 [Example 42, 6-(3-Fluorophenyl)-N-[1-(3-phenylpyrazin-2-yl)piperidin-4-yl]nicotinamide]
11 | 2.18 | O=C(NC1CCN(c2nc3ccccc3nc2NCCO)CC1)c1ccc(-c2cccc(F)c2)nc1 [Example 43, 6-(3-Fluorophenyl)-N-(1-{3-[(2-hydroxyethyl)amino]quinoxalin-2-yl}piperidin-4-yl)nicotinamide]
12 | 1.36 | COc1ccc(-c2cnc(C)nc2N2CCC(NC(=O)c3ccc(-c4cccc(F)c4)nc3)CC2)cc1OC [Example 44, N-{1-[5-(3,4-Dimethoxyphenyl)-2-methylpyrimidin-4-yl]piperidin-4-yl}-6-(3-fluorophenyl)nicotinamide]
13 | 0.773 | Cc1cc(N2CCC(NC(=O)c3ccc(-c4cccc(F)c4)nc3)CC2)nc(N)n1 [Example 45, N-[1-(2-Amino-6-methylpyrimidin-4-yl)piperidin-4-yl]-6-(3-fluorophenyl)nicotinamide]
14 | 1.73 | Cc1nc(C(F)(F)F)nc(N2CCC(NC(=O)c3ccc(-c4cccc(F)c4)nc3)CC2)c1C [Example 46, N-{1-[5,6-Dimethyl-2-(trifluoromethyl)pyrimidin-4-yl]piperidin-4-yl}-6-(3-fluorophenyl)nicotinamide]
15 | 2.92 | Cc1cc(C2CCCN2c2ccnc(N3CCC(NC(=O)c4ccc(-c5cccc(F)c5)nc4)CC3)n2)no1 (stereo not drawn) [Example 47, 6-(3-Fluorophenyl)-N-(1-{4-[2-(5-methylisoxazol-3-yl)pyrrolidin-1-yl]pyrimidin-2-yl}piperidin-4-yl)nicotinamide]
16 | 2.9 | Cc1nc(-c2ccccn2)nc(N2CCC(NC(=O)c3ccc(-c4cccc(F)c4)nc3)CC2)c1Cl [Example 48, N-[1-(5-Chloro-6-methyl-2-pyridin-2-ylpyrimidin-4-yl)piperidin-4-yl]-6-(3-fluorophenyl)nicotinamide]
17 | 0.619 | COc1cc(N2CCC(NC(=O)c3ccc(-c4cccc(F)c4)nc3)CC2)ncn1 [Example 49, 6-(3-Fluorophenyl)-N-[1-(6-methoxypyrimidin-4-yl)piperidin-4-yl]nicotinamide]
18 | 0.681 | O=C(NC1CCN(c2ccc(C(=O)N3CCOCC3)cn2)CC1)c1ccc(-c2cccc(F)c2)nc1 [Example 50, 6-(3-Fluorophenyl)-N-{1-[5-(morpholin-4-ylcarbonyl)pyridin-2-yl]piperidin-4-yl}nicotinamide]
19 | 0.266 | Cn1nnnc1N1CCC(NC(=O)c2ccc(-c3cccc(F)c3)nc2)CC1 [Example 51, 6-(3-Fluoro-phenyl)-N-[1-(1-methyl-1H-tetrazol-5-yl)-piperidin-4-yl]-nicotinamide]
20 | 0.332 | COc1ccc2c(N3CCC(NC(=O)c4ccc(-c5cccc(F)c5)nc4)CC3)ncnc2c1 [Example 52, 6-(3-Fluorophenyl)-N-[1-(7-methoxyquinazolin-4-yl)piperidin-4-yl]nicotinamide]

Row | IC50 [nM] | SMILES
21 | 1.03 | O=C(NC1CCN(c2cc(OCc3ccccn3)ncn2)CC1)c1ccc(-c2cccc(F)c2)nc1 [Example 53, 6-(3-Fluorophenyl)-N-{1-[6-(pyridin-2-ylmethoxy)pyrimidin-4-yl]piperidin-4-yl}nicotinamide]
22 | 1.31 | Cn1ccnc1COc1cc(N2CCC(NC(=O)c3ccc(-c4cccc(F)c4)nc3)CC2)ncn1 [Example 54, 6-(3-Fluorophenyl)-N-(1-{6-[(1-methyl-1H-imidazol-2-yl)methoxy]pyrimidin-4-yl}piperidin-4-yl)nicotinamide]
23 | 1.67 | COc1ccc(-c2cc(N3CCC(NC(=O)c4ccc(-c5cccc(F)c5)nc4)CC3)ncn2)cc1OC [Example 55, N-{1-[6-(3,4-Dimethoxyphenyl)pyrimidin-4-yl]piperidin-4-yl}-6-(3-fluorophenyl)nicotinamide]
24 | 12.8 | Cn1nccc1-c1nc(N2CCC(NC(=O)c3ccc(-c4cccc(F)c4)nc3)CC2)nc2ccccc12 [Example 56, 6-(3-Fluorophenyl)-N-{1-[4-(1-methyl-1H-pyrazol-5-yl)quinazolin-2-yl]piperidin-4-yl}nicotinamide]
25 | 0.285 | CCn1cnc2c(N3CCC(NC(=O)c4ccc(-c5cccc(F)c5)nc4)CC3)ncnc21 [Example 57, N-[1-(9-Ethyl-9H-purin-6-yl)piperidin-4-yl]-6-(3-fluorophenyl)nicotinamide]
26 | 8.25 | O=C(NC1CCN(c2ccnc(N3CCc4ccccc4C3)n2)CC1)c1ccc(-c2cccc(F)c2)nc1 [Example 58, N-{1-[2-(3,4-Dihydroisoquinolin-2(1H)-yl)pyrimidin-4-yl]piperidin-4-yl}-6-(3-fluorophenyl)nicotinamide]
27 | 0.822 | O=C(NC1CCN(c2nccc(NCc3ccccn3)n2)CC1)c1ccc(-c2cccc(F)c2)nc1 [Example 59, 6-(3-Fluorophenyl)-N-(1-{4-[(pyridin-2-ylmethyl)amino]pyrimidin-2-yl}piperidin-4-yl)nicotinamide]
28 | 0.593 | O=C(NC1CCN(c2cnccn2)CC1)c1ccc(-c2cccc(F)c2)nc1 [Example 60, 6-(3-Fluorophenyl)-N-(1-pyrazin-2-ylpiperidin-4-yl)nicotinamide]
29 | 0.365 | O=C(NC1CCN(c2nncc3ccccc23)CC1)c1ccc(-c2cccc(F)c2)nc1 [Example 61, 6-(3-Fluorophenyl)-N-(1-phthalazin-1-ylpiperidin-4-yl)nicotinamide]
30 | 3.33 | Cn1ccnc1-c1nc(N2CCC(NC(=O)c3ccc(-c4cccc(F)c4)nc3)CC2)nc2ccccc12 [Example 62, 6-(3-Fluorophenyl)-N-{1-[4-(1-methyl-1H-imidazol-2-yl)quinazolin-2-yl]piperidin-4-yl}nicotinamide]
31 | 0.183 | O=C(NC1CCN(c2ncnc3ncccc23)CC1)c1ccc(-c2cccc(F)c2)nc1 [Example 63, 6-(3-Fluorophenyl)-N-(1-pyrido[2,3-d]pyrimidin-4-ylpiperidin-4-yl)nicotinamide]
32 | 0.246 | NC(=O)c1cccnc1N1CCC(NC(=O)c2ccc(-c3cccc(F)c3)nc2)CC1 [Example 64, N-{1-[3-(Aminocarbonyl)pyridin-2-yl]piperidin-4-yl}-6-(3-fluorophenyl)nicotinamide]
33 | 0.354 | O=C(NC1CCN(c2ncccc2Cl)CC1)c1ccc(-c2cccc(F)c2)nc1 [Example 65, N-[1-(3-Ahloropyridin-2-yl)piperidin-4-yl]-6-(3-fluorophenyl)nicotinamide]
34 | 0.627 | CCOC(=O)c1cccnc1N1CCC(NC(=O)c2ccc(-c3cccc(F)c3)nc2)CC1 [Example 66, Ethyl 2-[4-({[6-(3-fluorophenyl)pyridin-3-yl]carbonyl}amino)piperidin-1-yl]nicotinate]
35 | 0.955 | COc1ccnc(N2CCC(NC(=O)c3ccc(-c4cccc(F)c4)nc3)CC2)c1C#N [Example 67, N-[1-(3-Cyano-4-methoxypyridin-2-yl)piperidin-4-yl]-6-(3-fluorophenyl)nicotinamide]
36 | 0.361 | NC(=O)c1ccc(N2CCC(NC(=O)c3ccc(-c4cccc(F)c4)nc3)CC2)nc1 [Example 68, N-{1-[5-(Aminocarbonyl)pyridin-2-yl]piperidin-4-yl}-6-(3-fluorophenyl)nicotinamide]
37 | 1.21 | Cc1cc(C)c(C#N)c(N2CCC(NC(=O)c3ccc(-c4cccc(F)c4)nc3)CC2)n1 [Example 69, N-[1-(3-Cyano-46-dimethylpyridin-2-yl)piperidin-4-yl]-6-(3-fluorophenyl)nicotinamide]
38 | 3.26 | N#Cc1ccc(C(F)(F)F)nc1N1CCC(NC(=O)c2ccc(-c3cccc(F)c3)nc2)CC1 [Example 70, N-{1-[3-Cyano-6-(trifluoromethyl)pyridin-2-yl]piperidin-4-yl}-6-(3-fluorophenyl)nicotinamide]
39 | 2.18 | Cc1csc2c(N3CCC(NC(=O)c4ccc(-c5cccc(F)c5)nc4)CC3)ncnc12 [Example 71, 6-(3-Fluorophenyl)-N-[1-(7-methylthieno[3,2-d]pyrimidin-4-yl)piperidin-4-yl]nicotinamide]
